Source: ChEMBL document CHEMBL2380255, “Dual targeting of adenosine A(2A) receptors and monoamine oxidase B by 4H-3,1-benzothiazin-4-ones” (J Med Chem, 2013)

What was measured:
[1] = Selectivity ratio of IC50 for MAO-B in mitochondria-enriched Sprague-Dawley rat liver fractions to IC50 for recombinant human MAO-B
[2] = target: T1, Amine oxidase [flavin-containing] B (Homo sapiens, UniProt P27338); assay: Inhibition of recombinant human MAO-B expressed in baculovirus-infected insect cells using p-tyramine as substrate incubated for 30 mins prior to substrate addition measured for 45 mins by amplex red reagent-based microplate fluorescence reader analysis; format: cell-based
T1 sequence (P27338 whole entry): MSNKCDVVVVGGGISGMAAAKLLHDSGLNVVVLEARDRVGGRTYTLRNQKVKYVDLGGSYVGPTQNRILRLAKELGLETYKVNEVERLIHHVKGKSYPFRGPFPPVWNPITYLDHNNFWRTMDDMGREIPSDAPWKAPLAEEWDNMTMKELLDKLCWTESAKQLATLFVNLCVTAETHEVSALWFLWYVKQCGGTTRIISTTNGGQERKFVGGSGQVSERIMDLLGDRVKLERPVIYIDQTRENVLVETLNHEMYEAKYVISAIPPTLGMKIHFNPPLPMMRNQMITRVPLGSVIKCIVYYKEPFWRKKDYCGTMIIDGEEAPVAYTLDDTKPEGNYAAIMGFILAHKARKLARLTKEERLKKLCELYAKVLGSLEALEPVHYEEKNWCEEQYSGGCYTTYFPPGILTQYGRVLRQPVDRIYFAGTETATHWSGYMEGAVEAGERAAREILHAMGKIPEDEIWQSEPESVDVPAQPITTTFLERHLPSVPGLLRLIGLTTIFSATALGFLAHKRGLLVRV

[3] = target: T2, Adenosine receptor A2b (Homo sapiens, UniProt P29275); assay: Displacement of [3H]PSB-603 from human recombinant adenosine A2B receptor expressed in CHO cells after 75 mins by liquid scintillation counting analysis; format: cell-based
T2 sequence (P29275 whole entry): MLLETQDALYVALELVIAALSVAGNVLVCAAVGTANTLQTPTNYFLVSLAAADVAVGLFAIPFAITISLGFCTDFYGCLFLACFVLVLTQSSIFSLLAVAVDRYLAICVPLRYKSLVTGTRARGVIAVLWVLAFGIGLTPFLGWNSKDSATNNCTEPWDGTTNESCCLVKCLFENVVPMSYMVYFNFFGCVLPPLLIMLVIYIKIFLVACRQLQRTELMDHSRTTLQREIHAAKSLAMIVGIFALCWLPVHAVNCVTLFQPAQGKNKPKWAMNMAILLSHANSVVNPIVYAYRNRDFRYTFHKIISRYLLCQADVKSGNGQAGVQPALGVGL

[4] = target: Adenosine receptor A2a (Rattus norvegicus, UniProt P30543); assay: Displacement of [3H]MSX2 from adenosine A2A receptor in rat brain striatal membranes after 30 mins by liquid scintillation counting analysis; format: cell membranes, Membrane
[5] = target: T3, Adenosine receptor A3 (Homo sapiens, UniProt P0DMS8); assay: Displacement of [3H]PSB-11 from human recombinant adenosine A3 receptor expressed in CHO cells after 60 mins by liquid scintillation counting analysis; format: cell-based
T3 sequence (P0DMS8 whole entry): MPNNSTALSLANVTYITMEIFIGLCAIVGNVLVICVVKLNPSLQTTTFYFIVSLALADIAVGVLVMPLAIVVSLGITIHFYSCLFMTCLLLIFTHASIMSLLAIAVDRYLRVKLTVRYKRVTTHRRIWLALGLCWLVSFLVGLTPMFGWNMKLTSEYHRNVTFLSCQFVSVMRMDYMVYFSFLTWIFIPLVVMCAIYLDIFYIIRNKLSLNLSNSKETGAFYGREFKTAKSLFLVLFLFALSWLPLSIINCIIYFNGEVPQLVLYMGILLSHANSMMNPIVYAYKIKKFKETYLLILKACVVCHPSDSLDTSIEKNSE

[6] = target: T4, Amine oxidase [flavin-containing] B (Rattus norvegicus, UniProt P19643); assay: Inhibition of MAO-B in mitochondria-enriched Sprague-Dawley rat liver fractions using p-tyramine as substrate incubated for 30 mins prior to substrate addition measured for 45 mins by amplex red reagent-based microplate fluorescence reader analysis
T4 sequence (P19643 whole entry): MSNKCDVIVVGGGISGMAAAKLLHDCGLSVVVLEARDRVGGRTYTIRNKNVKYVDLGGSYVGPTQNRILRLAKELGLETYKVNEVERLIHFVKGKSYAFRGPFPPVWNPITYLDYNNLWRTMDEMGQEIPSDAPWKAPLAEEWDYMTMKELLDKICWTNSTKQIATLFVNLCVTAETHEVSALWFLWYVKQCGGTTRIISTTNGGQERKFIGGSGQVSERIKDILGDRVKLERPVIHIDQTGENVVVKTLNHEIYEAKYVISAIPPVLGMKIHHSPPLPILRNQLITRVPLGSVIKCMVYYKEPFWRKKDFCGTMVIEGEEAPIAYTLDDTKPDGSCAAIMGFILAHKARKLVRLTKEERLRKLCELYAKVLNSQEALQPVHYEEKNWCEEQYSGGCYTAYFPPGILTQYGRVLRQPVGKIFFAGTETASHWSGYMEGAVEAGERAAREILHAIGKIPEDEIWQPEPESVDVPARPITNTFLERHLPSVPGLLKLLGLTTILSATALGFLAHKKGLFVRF

[7] = target: T5, Adenosine receptor A1 (Rattus norvegicus, UniProt P25099); assay: Displacement of [3H]CCPA from adenosine A1 receptor in rat brain cortical membranes after 90 mins by liquid scintillation counting analysis; format: cell membranes, Membrane
T5 sequence (P25099 whole entry): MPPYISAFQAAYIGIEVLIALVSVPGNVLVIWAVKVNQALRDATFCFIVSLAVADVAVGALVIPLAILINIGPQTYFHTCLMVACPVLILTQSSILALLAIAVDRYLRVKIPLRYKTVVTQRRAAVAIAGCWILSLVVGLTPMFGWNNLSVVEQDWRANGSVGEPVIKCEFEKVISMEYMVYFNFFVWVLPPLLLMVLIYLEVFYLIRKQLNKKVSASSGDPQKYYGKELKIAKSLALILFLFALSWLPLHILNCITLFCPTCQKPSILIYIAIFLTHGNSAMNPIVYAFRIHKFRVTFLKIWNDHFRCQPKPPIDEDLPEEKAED

[8] = target: Adenosine receptor A2a (Homo sapiens, UniProt P29274); assay: Displacement of [3H]MSX2 from human recombinant adenosine A2A receptor expressed in CHO cells after 30 mins by liquid scintillation counting analysis; format: cell-based
[9] = target: T6, Adenosine receptor A1 (Homo sapiens, UniProt P30542); assay: Displacement of [3H]CCPA from human recombinant adenosine A1 receptor expressed in CHO cells after 90 mins by liquid scintillation counting analysis; format: cell-based
T6 sequence (P30542 whole entry): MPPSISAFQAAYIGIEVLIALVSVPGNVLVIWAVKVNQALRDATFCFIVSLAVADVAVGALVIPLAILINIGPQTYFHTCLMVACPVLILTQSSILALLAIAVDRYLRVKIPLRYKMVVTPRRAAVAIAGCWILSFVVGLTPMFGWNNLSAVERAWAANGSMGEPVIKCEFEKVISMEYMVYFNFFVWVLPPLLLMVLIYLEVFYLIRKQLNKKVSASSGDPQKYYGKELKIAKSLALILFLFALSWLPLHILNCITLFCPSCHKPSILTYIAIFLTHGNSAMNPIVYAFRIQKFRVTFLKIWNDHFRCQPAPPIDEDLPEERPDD

[10] = species on record: Homo sapiens; assay: Selectivity ratio of Ki for human recombinant adenosine A3 receptor to Ki for human recombinant adenosine A2A receptor
[11] = species on record: Homo sapiens; assay: Selectivity ratio of Ki for human recombinant adenosine A2B receptor to Ki for human recombinant adenosine A2A receptor

Sequence of Adenosine receptor A2a (Homo sapiens, UniProt P29274) (P29274 whole entry): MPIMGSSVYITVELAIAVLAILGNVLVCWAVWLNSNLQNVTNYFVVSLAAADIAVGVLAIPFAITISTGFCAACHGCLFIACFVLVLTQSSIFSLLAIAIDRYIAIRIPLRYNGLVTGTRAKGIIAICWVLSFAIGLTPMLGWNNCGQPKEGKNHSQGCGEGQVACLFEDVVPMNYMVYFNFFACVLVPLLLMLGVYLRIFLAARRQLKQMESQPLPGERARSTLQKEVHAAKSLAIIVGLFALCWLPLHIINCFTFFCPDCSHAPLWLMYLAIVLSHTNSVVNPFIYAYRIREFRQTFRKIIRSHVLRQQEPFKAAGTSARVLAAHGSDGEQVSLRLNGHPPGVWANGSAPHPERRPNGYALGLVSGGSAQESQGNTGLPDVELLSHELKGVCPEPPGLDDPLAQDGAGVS
Sequence of Adenosine receptor A2a (Rattus norvegicus, UniProt P30543) (P30543 whole entry): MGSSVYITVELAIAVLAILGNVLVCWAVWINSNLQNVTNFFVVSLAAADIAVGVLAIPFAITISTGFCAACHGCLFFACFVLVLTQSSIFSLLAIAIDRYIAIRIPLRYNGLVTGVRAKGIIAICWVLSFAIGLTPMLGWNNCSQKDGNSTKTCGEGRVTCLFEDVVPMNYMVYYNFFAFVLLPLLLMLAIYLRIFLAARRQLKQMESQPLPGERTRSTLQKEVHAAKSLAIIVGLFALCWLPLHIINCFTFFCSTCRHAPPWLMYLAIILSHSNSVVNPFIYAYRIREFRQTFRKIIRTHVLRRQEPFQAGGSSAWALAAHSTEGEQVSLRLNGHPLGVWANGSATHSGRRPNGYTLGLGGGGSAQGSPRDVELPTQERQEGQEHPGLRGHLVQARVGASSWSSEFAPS

Ratio IC50 [1]	IC50 [2]	Ki [3]	Ki [4]	Ki [5]	IC50 [6]	Ki [7]	Ki [8]	Ki [9]	Ratio Ki [10]	Ratio Ki [11]	SMILES
1.4	> 10000 nM	> 1000 nM	> 10000 nM	> 1000 nM	–	–	> 1000 nM	> 1000 nM	–	–	O=C(Nc1nc2ccccc2c(=O)s1)c1ccc(C(=O)N2CCN(Cc3ccccc3Cl)CC2)cc1
1.4	> 10000 nM	> 1000 nM	> 10000 nM	> 1000 nM	> 10000 nM	> 1500 nM	–	–	–	–	O=C(CCc1ccc(Cl)c(Cl)c1)Nc1nc2ccccc2c(=O)s1
1.4	> 1000 nM	≥ 1000 nM	> 10000 nM	> 1000 nM	6880 nM	898 nM	–	> 10000 nM	–	–	O=C(CCCc1cccc(Cl)c1)Nc1nc2ccccc2c(=O)s1
1.4	43.7 nM	> 1000 nM	1720 nM	> 1000 nM	73.9 nM	> 10000 nM	≥ 1000 nM	–	–	–	COc1cccc(C#CC(=O)Nc2nc3ccccc3c(=O)s2)c1
1.4	94 nM	408 nM	6060 nM	147 nM	325 nM	98.3 nM	–	1000 nM	–	–	Cc1ccc2nc(NC(=O)CCCc3ccccc3)sc(=O)c2c1
1.4	206 nM	547 nM	> 10000 nM	> 1000 nM	298 nM	≥ 10000 nM	–	–	–	–	O=C(CCCc1ccccc1)Nc1nc2ccsc2c(=O)s1
31	2.09 nM	> 1000 nM	> 10000 nM	> 1000 nM	64 nM	> 10000 nM	–	–	–	–	O=C(CCc1ccccc1Br)Nc1nc2ccccc2c(=O)s1
–	470 nM	679 nM	253 nM	> 1000 nM	281 nM	205 nM	62.4 nM	> 10000 nM	> 16	10	COc1cccc(/C=C/C(=O)Nc2nc3ccccc3c(=O)s2)c1
–	> 10000 nM	> 1000 nM	> 1000 nM	> 1000 nM	4640 nM	≥ 1500 nM	–	–	–	–	O=C(C/C=C/c1ccc(Cl)c(Cl)c1)Nc1nc2ccccc2c(=O)s1
1.4	> 10000 nM	> 1000 nM	> 10000 nM	> 1000 nM	> 10000 nM	> 10000 nM	–	–	–	–	O=C(CCCc1ccccc1)Nc1nc2ccc(Br)cc2c(=O)s1
1.4	389 nM	302 nM	558 nM	382 nM	1300 nM	22.5 nM	115 nM	214 nM	–	–	COc1cccc(CCCC(=O)Nc2nc3ccccc3c(=O)s2)c1

The remaining lines, values behind:

SMILES	Ratio IC50 [1]	IC50 [2]	Ki [3]	Ki [4]	Ki [5]	IC50 [6]	Ki [7]	Ki [8]	Ki [9]	Ratio Ki [10]	Ratio Ki [11]
O=C(Nc1nc2ccccc2c(=O)s1)c1ccc(C(=O)N2CCN(Cc3ccccc3)CC2)cc1	1.4	> 10000 nM	–	–	–	–	–	–	–	–	–
O=C(CCCc1ccccc1)Nc1nc2ccc(Cl)cc2c(=O)s1	1.4	> 10000 nM	> 1000 nM	> 10000 nM	> 1000 nM	> 10000 nM	> 10000 nM	–	–	–	–
COCCOc1ccc(N2CCN(CCn3ncc4c3nc(N)n3nc(-c5ccco5)nc43)CC2)cc1 [PRELADENANT]	–	–	> 1000 nM	0.66 nM	> 1000 nM	–	68.7 nM	0.884 nM	295 nM	–	–
O=C(/C=C/c1cccc(Cl)c1)Nc1nc2ccccc2c(=O)s1	1.4	93.3 nM	> 1000 nM	> 10000 nM	> 1000 nM	815 nM	≥ 10000 nM	> 1000 nM	–	–	–
Cc1sc2nc(NC(=O)CCCc3ccccc3)sc(=O)c2c1C	1.4	9.8 nM	> 1000 nM	> 10000 nM	> 1000 nM	26.6 nM	> 10000 nM	–	–	–	–
O=C(Nc1nc2ccccc2c(=O)s1)c1ccccc1	1.4	–	–	–	–	> 10000 nM	–	–	–	–	–
O=C(CCc1ccccc1F)Nc1nc2ccccc2c(=O)s1	65	11.2 nM	801 nM	2190 nM	≥ 1000 nM	725 nM	> 10000 nM	–	–	–	–
O=C(C/C=C/c1ccccc1)Nc1nc2ccccc2c(=O)s1	1.4	39.8 nM	119 nM	814 nM	158 nM	361 nM	53 nM	118 nM	822 nM	–	–
O=C(CCCc1ccccc1)Nc1nc2cc(Cl)ccc2c(=O)s1	1.4	76.4 nM	> 1000 nM	≥ 10000 nM	91.6 nM	1220 nM	64.4 nM	–	785 nM	–	–
O=C(Nc1nc2ccccc2c(=O)s1)c1ccc(C(=O)N2CCN(Cc3cccc(Cl)c3)CC2)cc1	1.4	> 10000 nM	> 1000 nM	84.7 nM	> 1000 nM	–	–	58.3 nM	> 1000 nM	–	–
CN(C(=O)CCCc1ccccc1)c1nc2ccccc2c(=O)s1	1.4	53.1 nM	> 1000 nM	> 10000 nM	> 1000 nM	–	> 10000 nM	> 10000 nM	–	–	–
O=C(CCCc1ccc(Cl)c(Cl)c1)Nc1nc2ccccc2c(=O)s1	–	3440 nM	> 1000 nM	> 10000 nM	> 1000 nM	3300 nM	> 1500 nM	–	–	–	–
